Assay results reported in US20220184071A1, “GEPOTIDACIN FOR USE IN THE TREATMENT OF BACTERIAL URINARY TRACT INFECTIONS” (GlaxoSmithKline Intellectual Property Development Limited, priority 2019, published 2022).
Converted amounts (≈) assume the structure as drawn.

Assays:
Acinetobacter pittii = test: Phase IIa non-qualifying baseline uropathogen MIC; format: cell-based; details: baseline uropathogen recovered at <10^5 CFU/mL
Procedure: (§1) This phase IIa single center study evaluated the safety, tolerability, pharmacokinetics, and efficacy of oral gepotidacin 1500 mg BID for 5 days in female subjects with acute cystitis. Clean catch mid-stream urine specimens were obtained for quantitative culture by standard methods. Urine samples were taken from all participants pre-treatment (baseline) and at all post-baseline visits. All urine samples were sent to a central laboratory (PPD Global Clinical Laboratories, Highland Heights, Ky., USA) for Gram stain, quantitative culture, pathogen identification and susceptibility testing. See FIG. 1 for participant disposition and study outline.
(§2) Susceptibility testing by CLSI broth microdilution and gradient diffusion (fosfomycin only) was conducted (CLSI, 2015, Methods for dilution antimicrobial susceptibility tests for bacteria that grow aerobically; approved standard-tenth edition; and CLSI, 2018. Performance Standards for Antimicrobial Susceptibility Testing; Twenty-seventh Informational Supplement M100-S28). Inclusion in the microbiological intent-to-treat population (micro-ITT), required growth of a qualifying baseline uropathogen (≥10^5 CFU/mL). See FIG. 2 for the baseline algorithm.

[1] = tested on: Citrobacter freundii complex; test: Phase IIa non-qualifying baseline uropathogen MIC; format: cell-based; details: baseline uropathogen recovered at <10^5 CFU/mL
Procedure: as §1, §2

E. coli = test: Gepotidacin MIC90 for common uUTI pathogens (stated in conclusions); format: cell-based; details: Escherichia coli
Prevotella spp. = test: MIC by CLSI agar dilution, Example 6 second study; format: cell-based; details: 1 isolate
From the text: (§3) A second study tested gepotidacin by CLSI agar dilution against gram-positive and gram-negative anaerobic bacterial isolates from the GlaxoSmithKline Upper Providence culture collection. Amoxicillin, azithromycin, levofloxacin, and cefuroxime were included as comparators.

Peptostreptococcus spp. = test: MIC by CLSI agar dilution, Example 6 second study; format: cell-based; details: 4 isolates
From the text: as §3

Fusobacterium spp. = test: MIC by CLSI agar dilution, Example 6 second study; format: cell-based; details: 3 isolates
From the text: as §3

Clostridium bifermentans = test: MIC by CLSI agar dilution, Example 6 second study; format: cell-based; details: Paraclostridium bifermentans; 1 isolate
From the text: as §3

Bacteroides uniformis = test: MIC by broth microdilution, drug-resistant isolates; format: cell-based
Procedure: (§4) Additional analysis was performed from the results of the study described in Method 1 above, to determine the in vitro activity of gepotidacin against gram-negative and gram-positive anaerobic organisms with resistance to ceftriaxone, clindamycin, imipenem, metronidazole, moxifloxacin and piperacillin/tazobactam.

Bacteroides ovatus = test: as above; format: cell-based
Procedure: as §4

Bacteroides fragilis = test: as above; format: cell-based
Procedure: as §4

Bacteroides vulgatus = test: as above; format: cell-based
Procedure: as §4

Bacteroides stercoris = test: as above; format: cell-based; details: ceftriaxone R, 2 isolates
Procedure: as §4

[2] = tested on: Bacteroides thetaiotaomicron; test: as above; format: cell-based
Procedure: as §4

Bacteroides spp = test: as above; format: cell-based
Procedure: as §4

Bacteroides caccae = test: as above; format: cell-based; details: 1 isolate
Procedure: as §4

P. aeruginosa = test: MIC by CLSI agar dilution, Example 1 Method 2; format: cell-based, Pseudomonas aeruginosa; details: n = 55
Procedure: Antimicrobial activity was determined in a second study by […] using the CLSI recommended procedure in serial two-fold dilutions and the minimum inhibitory concentration (MIC) was determined as the lowest concentration of the compound that inhibited visible growth.
MICs were determined according to CLSI agar dilution guidelines.

[3] = Pharmacokinetics in infected mice (plasma, kidney, thigh; PopPK); format: in vivo, mouse
Procedure: PK and PD studies using gepotidacin were conducted in murine (male CD-1 mice) thigh and kidney infections. The administered doses ranged from 1 to 200 mg/kg SC every 6 hours starting 1h post infection. Infected tissues were evaluated for bacterial burden at 24 h post infection (baseline controls at 1 h post infection).
Plasma and tissue samples (kidney or thigh homogenates) were collected at 15, 30, 60, 120, 240 and 360 minutes. A population PK (PopPK) model was built in NONMEM using plasma exposures.
Specific pathogen free male CD-1 mice weighing ˜27 g were used throughout the PK and PD studies. For most studies, mice were rendered neutropenic with two IP doses of cyclophosphamide on day −4 (150 mg/kg) and day −1 (100 mg/kg). Plasma and tissue samples (kidney and/or thigh) were collected at 15, 30, 60, 120, 240 and 360 minutes post dose from competent or neutropenic infected mice (N=3/group) following a single subcutaneous (SC) dose of 6.25-200 mg/kg. Samples were assayed by LC/MS/MS; the lower limit of quantification was 0.05 ug/mL.
Non-compartmental Analysis (NCA): plasma NCA was conducted using Phoenix WinNonLin 6.3 (Pharsight) with the linear up log down method.
Population Pharmacokinetics (PopPK): • Total drug concentrations in plasma were converted to free drug values based on protein binding of 24% in mice. • A PopPK model was built to describe the drug exposure in plasma over time using NONMEM (7.3) and the software R (version 3.4.0) for diagnostic plots. • The final model was used to simulate exposures at the multiple dose levels evaluated in the efficacy studies.

O=c1ccc2ncc(=O)n3c2n1C[C@H]3CN1CCC(NCc2cc3c(cn2)OCCC3)CC1 [gepotidacin, (2R)-2-({4-[(3,4-dihydro-2H-pyrano[2,3-c]pyridin-6-ylmethyl)amino]-1-piperidinyl}methyl)-1,2-dihydro-3H,8H-2a,5,8a-triazaacenaphthylene-3,8-dione]
MIC (Acinetobacter pittii): 1 µg/mL (≈ 2.23 µM)
MIC [1]: 1 µg/mL (≈ 2.23 µM)
MIC90 (E. coli): 4 µg/mL (≈ 8.92 µM)
MIC (Prevotella spp.): 4 µg/mL (≈ 8.92 µM)
MIC (Peptostreptococcus spp.): 0.12 to 2 µg/mL (≈ 0.268 to 4.46 µM)
MIC (Fusobacterium spp.): 0.12 to 1 µg/mL (≈ 0.268 to 2.23 µM)
MIC (Clostridium bifermentans): 0.06 µg/mL (≈ 0.134 µM)
Gepotidacin MIC range (Bacteroides uniformis; ceftriaxone R, 2 isolates): 0.5 to 2 µg/mL
Gepotidacin MIC range (Bacteroides uniformis; moxifloxacin R, 1 isolate): 0.5 µg/mL
Gepotidacin MIC range (Bacteroides ovatus; ceftriaxone R, 5 isolates): 0.5 to 2 µg/mL
Gepotidacin MIC range (Bacteroides ovatus; clindamycin R, 5 isolates): 0.25 to 4 µg/mL
Gepotidacin MIC range (Bacteroides ovatus; moxifloxacin R, 3 isolates): 0.5 to 4 µg/mL
Gepotidacin MIC range (Bacteroides fragilis; ceftriaxone R, 24 isolates): 0.25 to 16 µg/mL
Gepotidacin MIC range (Bacteroides fragilis; clindamycin R, 23 isolates): 0.06 to 16 µg/mL
Gepotidacin MIC range (Bacteroides fragilis; imipenem R, 2 isolates): 1 to 4 µg/mL
Gepotidacin MIC range (Bacteroides fragilis; moxifloxacin R, 20 isolates): 0.25 to 8 µg/mL
Gepotidacin MIC range (Bacteroides fragilis; pip/tazo R, 2 isolates): 1 to 4 µg/mL
Gepotidacin MIC range (Bacteroides vulgatus; ceftriaxone R, 7 isolates): 0.06 to 4 µg/mL
Gepotidacin MIC range (Bacteroides vulgatus; clindamycin R, 4 isolates): 0.06 to 0.5 µg/mL
Gepotidacin MIC range (Bacteroides vulgatus; moxifloxacin R, 3 isolates): 0.25 to 4 µg/mL
Gepotidacin MIC range (Bacteroides stercoris): ≤0.015 to 0.5 µg/mL
Gepotidacin MIC range ([2]; ceftriaxone R, 20 isolates): 0.5 to 8 µg/mL
Gepotidacin MIC range ([2]; clindamycin R, 18 isolates): 0.5 to 8 µg/mL
Gepotidacin MIC range ([2]; moxifloxacin R, 7 isolates): 0.5 to 8 µg/mL
Gepotidacin MIC range (Bacteroides spp; ceftriaxone R, 61 isolates): ≤0.015 to 6 µg/mL
Gepotidacin MIC range (Bacteroides spp; clindamycin R, 51 isolates): 0.06 to 16 µg/mL
Gepotidacin MIC range (Bacteroides spp; moxifloxacin R, 35 isolates): 0.25 to 8 µg/mL
Gepotidacin MIC range (Bacteroides caccae; ceftriaxone R): 0.25 µg/mL
Gepotidacin MIC range (Bacteroides caccae; clindamycin R): 4 µg/mL
Gepotidacin MIC range (Bacteroides caccae; moxifloxacin R): 0.25 µg/mL
MIC50 (P. aeruginosa; Pseudomonas aeruginosa): 8 µg/mL (≈ 17.8 µM)
MIC90 (P. aeruginosa; Pseudomonas aeruginosa): 32 µg/mL (≈ 71.3 µM)
Number of Isolates at Gepotidacin MIC 0.5 mg/L (P. aeruginosa): 1
Number of Isolates at Gepotidacin MIC 1 mg/L (P. aeruginosa): 2
Number of Isolates at Gepotidacin MIC 2 mg/L (P. aeruginosa): 4
Number of Isolates at Gepotidacin MIC 4 mg/L (P. aeruginosa): 18
Number of Isolates at Gepotidacin MIC 8 mg/L (P. aeruginosa): 15
Number of Isolates at Gepotidacin MIC ≥16 mg/L (P. aeruginosa): 15
duration of infusion ([3]; PopPK final parameter estimate, plasma): 0.262 h
AUC0-6 in kidney, fold higher than in plasma ([3]; SC dosing, infected mice): 4- to 5 fold
AUC0-6 in thigh relative to plasma ([3]; SC dosing, infected mice): approximately half of plasma
clearance ([3]; male, CD-1, mouse, subcutaneous, PopPK final parameter estimate, plasma): 1.73 mL/min
Vd ([3]; male, CD-1, mouse, subcutaneous, PopPK final parameter estimate, plasma, read-out: volume of distribution): 0.151 L
fraction unbound ([3]; mouse, plasma, mice, read-out: protein binding (converted)): 0.76
